Starred links: 1 amine or outer side, 2 acyl side, 3 side chain; linkers in the order of their positions; H or OH if unused. Non-standard residues stand in square brackets, D forms with d. Residues, ends and D or L forms follow the SMILES beside them. *: point of attachment. X10 = NC(=O)CC[C@H](CN[*:1])C(=O)[*:2]; X8 = NC[C@@H](CO)C(=O)*
Key:
Assay type in all cases: cell-based
PTHR1 and PTHR2 = assay: Tolerance pattern of β residues for PTHR1 and PTHR2 activation; parameters: key: “*” denotes potent PTHR1-selective agonism; “#” denotes potent PTHR2-selective agonism; “*#” denotes potent agonism of both PTHR1 and PTHR2; settings: PTHR1 vs PTHR2 agonism
From the text: Enhanced selectivity via double α→β replacement.

PTHR1 = biological target: T1, PTHR1 (Homo sapiens, UniProt Q03431); assay: PTHR1 activation, cAMP production (GloSensor) in HEK293 cells; parameters: expressed in transfected cells; settings: for EC50: HEK-293 cells, GloSensor cAMP, read-out: EC50 (nM) of PTHR1 Activation
T1 sequence (Q03431 27-593): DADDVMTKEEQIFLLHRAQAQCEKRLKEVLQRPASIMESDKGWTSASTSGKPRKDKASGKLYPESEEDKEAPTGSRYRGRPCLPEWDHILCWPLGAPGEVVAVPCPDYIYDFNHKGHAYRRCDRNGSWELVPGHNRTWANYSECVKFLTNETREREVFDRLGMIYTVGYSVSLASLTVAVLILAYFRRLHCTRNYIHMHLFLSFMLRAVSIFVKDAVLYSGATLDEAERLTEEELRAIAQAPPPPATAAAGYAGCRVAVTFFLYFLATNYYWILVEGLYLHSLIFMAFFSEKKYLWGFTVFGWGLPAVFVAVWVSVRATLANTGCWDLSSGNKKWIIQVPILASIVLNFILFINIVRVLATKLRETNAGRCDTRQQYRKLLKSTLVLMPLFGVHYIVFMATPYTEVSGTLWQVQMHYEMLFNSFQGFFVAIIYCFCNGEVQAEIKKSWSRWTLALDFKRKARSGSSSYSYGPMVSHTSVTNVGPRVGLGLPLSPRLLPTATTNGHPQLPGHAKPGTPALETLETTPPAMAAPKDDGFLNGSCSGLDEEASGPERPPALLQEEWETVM
From the text: The assays employ HEK-293 cells that have been engineered to express the appropriate receptor. GloSensor-based detection of cAMP provides a read-out of receptor activation.
(§1) For PTHR1 activation and all the binding data, data represent mean±s.e.m from three independent measurements; For PTHR2 activation, data represent mean±s.e.m from four independent measurements. Curves were fit to the data using a four-parameter sigmoidal dose-response equation.
For cAMP dose-response assays, monolayers of confluent HEK 293 cells were pre-incubated with buffer containing d-luciferin (0.5 mM) in 96 well plates at room temperature until a stable baseline level of luminescence was established (30 min). Varying concentrations of agonist were then added, and the time course of luminescence response was recorded using a Perkin Elmer plate reader following α/β-peptide addition.

PTHR2 = PTHR2 (Homo sapiens, UniProt P49190); assay: PTHR2 activation, cAMP production (GloSensor) in HEK293 cells; parameters: expressed in transfected cells; settings: for EC50: HEK-293 cells, GloSensor cAMP, read-out: EC50 (nM) of PTHR2 Activation
From the text: The assays employ HEK-293 cells that have been engineered to express the appropriate receptor. GloSensor-based detection of cAMP provides a read-out of receptor activation. […] (Carter, P. H. et al. Actions of the Small Molecule Ligands SW106 and AH-3960 on the Type-1 Parathyroid Hormone Receptor. Molecular Endocrinology 29, 307-321 (2015).)
as §1, with “FIGS. 10A and 10B depict dose-response curves of PTHR1 activation (FIG. 10A) and PTHR2 activation (FIG. 10B) in HEK293 cells stably expressing PTHR1 or PTHR2. For PTHR1” for “For PTHR1”

PTHR2, sequence (P49190 25-550): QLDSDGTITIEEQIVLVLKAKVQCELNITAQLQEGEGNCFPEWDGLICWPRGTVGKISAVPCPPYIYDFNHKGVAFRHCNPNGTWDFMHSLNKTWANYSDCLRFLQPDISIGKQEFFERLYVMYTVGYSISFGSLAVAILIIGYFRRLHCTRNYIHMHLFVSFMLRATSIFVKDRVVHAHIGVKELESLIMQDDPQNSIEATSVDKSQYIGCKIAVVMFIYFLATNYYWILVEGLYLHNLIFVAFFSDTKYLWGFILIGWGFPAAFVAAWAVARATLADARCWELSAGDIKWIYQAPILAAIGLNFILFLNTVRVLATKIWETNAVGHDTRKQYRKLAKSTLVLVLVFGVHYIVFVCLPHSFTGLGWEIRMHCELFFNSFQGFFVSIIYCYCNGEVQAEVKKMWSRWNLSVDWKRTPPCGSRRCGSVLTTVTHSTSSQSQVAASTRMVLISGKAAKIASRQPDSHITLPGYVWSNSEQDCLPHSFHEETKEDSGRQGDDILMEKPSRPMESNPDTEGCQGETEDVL

| SMILES | Tolerance Pattern of β AA (PTHR1 and PTHR2) | EC50 (PTHR1) [nM] | PTHR1 Activation: Derivative EC50/PTH EC50 (PTHR1; normalized to EC50 of PTH(1-34)-NH2 ([…]), cAMP production) | EC50 (PTHR2) [nM] | PTHR2 Activation: Derivative EC50/PTH EC50 (PTHR2; normalized to EC50 of PTH(1-34)-NH2 ([…] printed), cAMP production) |
| --- | --- | --- | --- | --- | --- |
| CC[C@H](C)[C@H](NC(=O)[C@H](CCC(=O)O)NC(=O)C[C@H](CO)NC(=O)[C@@H](NC(=O)[C@@H](N)CO)C(C)C)C(=O)N[C@@H](CCC(N)=O)C(=O)N[C@@H](CC(C)C)C(=O)N[C@@H](CCSC)C(=O)N[C@@H](Cc1c[nH]cn1)C(=O)N[C@@H](CC(N)=O)C(=O)N[C@@H](CC(C)C)C(=O)NCC(=O)N[C@@H](CCCCN)C(=O)N[C@@H](Cc1c[nH]cn1)C(=O)N[C@@H](CC(C)C)C(=O)N[C@@H](CC(N)=O)C(=O)N[C@@H](CO)C(=O)N[C@@H](CCSC)C(=O)N[C@@H](CCC(=O)O)C(=O)N[C@@H](CCCNC(=N)N)C(=O)N[C@H](C(=O)N[C@@H](CCC(=O)O)C(=O)N[C@@H](Cc1c[nH]c2ccccc12)C(=O)N[C@@H](CC(C)C)C(=O)N[C@@H](CCCNC(=N)N)C(=O)N[C@@H](CCCCN)C(=O)N[C@@H](CCCCN)C(=O)N[C@@H](CC(C)C)C(=O)N[C@@H](CCC(N)=O)C(=O)N[C@@H](CC(=O)O)C(=O)N[C@H](C(=O)N[C@@H](Cc1c[nH]cn1)C(=O)N[C@@H](CC(N)=O)C(=O)N[C@@H](Cc1ccccc1)C(N)=O)C(C)C)C(C)C [SEQ. ID. NO: 40] | # | – | – | – | – |
| CC[C@H](C)[C@H](NC(=O)[C@H](CCC(=O)O)NC(=O)[C@H](CO)NC(=O)[C@@H](NC(=O)C[C@@H](N)CO)C(C)C)C(=O)N[C@@H](CCC(N)=O)C(=O)N[C@@H](CC(C)C)C(=O)N[C@@H](CCSC)C(=O)N[C@@H](Cc1c[nH]cn1)C(=O)N[C@@H](CC(N)=O)C(=O)N[C@@H](CC(C)C)C(=O)NCC(=O)N[C@@H](CCCCN)C(=O)N[C@@H](Cc1c[nH]cn1)C(=O)N[C@@H](CC(C)C)C(=O)N[C@@H](CC(N)=O)C(=O)N[C@@H](CO)C(=O)N[C@@H](CCSC)C(=O)N[C@@H](CCC(=O)O)C(=O)N[C@@H](CCCNC(=N)N)C(=O)N[C@H](C(=O)N[C@@H](CCC(=O)O)C(=O)N[C@@H](Cc1c[nH]c2ccccc12)C(=O)N[C@@H](CC(C)C)C(=O)N[C@@H](CCCNC(=N)N)C(=O)N[C@@H](CCCCN)C(=O)N[C@@H](CCCCN)C(=O)N[C@@H](CC(C)C)C(=O)N[C@@H](CCC(N)=O)C(=O)N[C@@H](CC(=O)O)C(=O)N[C@H](C(=O)N[C@@H](Cc1c[nH]cn1)C(=O)N[C@@H](CC(N)=O)C(=O)N[C@@H](Cc1ccccc1)C(N)=O)C(C)C)C(C)C [SEQ. ID. NO: 38] | *# | 0.27 ± 0.06 | – | – | – |
| CC[C@H](C)[C@H](NC(=O)[C@H](CCC(=O)O)NC(=O)[C@H](CO)NC(=O)[C@@H](NC(=O)[C@@H](N)CO)C(C)C)C(=O)NC[C@@H](CCC(N)=O)C(=O)N[C@@H](CC(C)C)C(=O)N[C@@H](CCSC)C(=O)N[C@@H](Cc1c[nH]cn1)C(=O)N[C@@H](CC(N)=O)C(=O)N[C@@H](CC(C)C)C(=O)NCC(=O)N[C@@H](CCCCN)C(=O)N[C@@H](Cc1c[nH]cn1)C(=O)N[C@@H](CC(C)C)C(=O)N[C@@H](CC(N)=O)C(=O)N[C@@H](CO)C(=O)N[C@@H](CCSC)C(=O)N[C@@H](CCC(=O)O)C(=O)N[C@@H](CCCNC(=N)N)C(=O)N[C@H](C(=O)N[C@@H](CCC(=O)O)C(=O)N[C@@H](Cc1c[nH]c2ccccc12)C(=O)N[C@@H](CC(C)C)C(=O)N[C@@H](CCCNC(=N)N)C(=O)N[C@@H](CCCCN)C(=O)N[C@@H](CCCCN)C(=O)N[C@@H](CC(C)C)C(=O)N[C@@H](CCC(N)=O)C(=O)N[C@@H](CC(=O)O)C(=O)N[C@H](C(=O)N[C@@H](Cc1c[nH]cn1)C(=O)N[C@@H](CC(N)=O)C(=O)N[C@@H](Cc1ccccc1)C(N)=O)C(C)C)C(C)C [SEQ. ID. NO: 27] (H-SVSEI[X10]LMHNLGKHLNSMERVEWLRKKLQDVHNF-NH2; N-terminus assumed) | – | 7.83 ± 0.4 | 20.61 | 51.9 ± 8.82 | 59.70 |
| CC[C@H](C)[C@H](NC(=O)[C@H](CCC(=O)O)NC(=O)[C@H](CO)NC(=O)[C@@H](NC(=O)[C@@H](CN)CO)C(C)C)C(=O)N[C@@H](CCC(N)=O)C(=O)N[C@@H](CC(C)C)C(=O)N[C@@H](CCSC)C(=O)N[C@@H](Cc1c[nH]cn1)C(=O)N[C@@H](CC(N)=O)C(=O)N[C@@H](CC(C)C)C(=O)NCC(=O)N[C@@H](CCCCN)C(=O)N[C@@H](Cc1c[nH]cn1)C(=O)N[C@@H](CC(C)C)C(=O)N[C@@H](CC(N)=O)C(=O)N[C@@H](CO)C(=O)N[C@@H](CCSC)C(=O)N[C@@H](CCC(=O)O)C(=O)N[C@@H](CCCNC(=N)N)C(=O)N[C@H](C(=O)N[C@@H](CCC(=O)O)C(=O)N[C@@H](Cc1c[nH]c2ccccc12)C(=O)N[C@@H](CC(C)C)C(=O)N[C@@H](CCCNC(=N)N)C(=O)N[C@@H](CCCCN)C(=O)N[C@@H](CCCCN)C(=O)N[C@@H](CC(C)C)C(=O)N[C@@H](CCC(N)=O)C(=O)N[C@@H](CC(=O)O)C(=O)N[C@H](C(=O)N[C@@H](Cc1c[nH]cn1)C(=O)N[C@@H](CC(N)=O)C(=O)N[C@@H](Cc1ccccc1)C(N)=O)C(C)C)C(C)C [SEQ. ID. NO: 22] (X8-VSEIQLMHNLGKHLNSMERVEWLRKKLQDVHNF-NH2) | – | 0.35 ± 0.06 | – | 5.97 ± 1.21 | – |
| CC[C@H](C)[C@H](NC(=O)[C@H](CCC(=O)O)NC(=O)[C@H](CO)NC(=O)C[C@@H](NC(=O)[C@@H](N)CO)C(C)C)C(=O)N[C@@H](CCC(N)=O)C(=O)N[C@@H](CC(C)C)C(=O)N[C@@H](CCSC)C(=O)N[C@@H](Cc1c[nH]cn1)C(=O)N[C@@H](CC(N)=O)C(=O)N[C@@H](CC(C)C)C(=O)NCC(=O)N[C@@H](CCCCN)C(=O)N[C@@H](Cc1c[nH]cn1)C(=O)N[C@@H](CC(C)C)C(=O)N[C@@H](CC(N)=O)C(=O)N[C@@H](CO)C(=O)N[C@@H](CCSC)C(=O)N[C@@H](CCC(=O)O)C(=O)N[C@@H](CCCNC(=N)N)C(=O)N[C@H](C(=O)N[C@@H](CCC(=O)O)C(=O)N[C@@H](Cc1c[nH]c2ccccc12)C(=O)N[C@@H](CC(C)C)C(=O)N[C@@H](CCCNC(=N)N)C(=O)N[C@@H](CCCCN)C(=O)N[C@@H](CCCCN)C(=O)N[C@@H](CC(C)C)C(=O)N[C@@H](CCC(N)=O)C(=O)N[C@@H](CC(=O)O)C(=O)N[C@H](C(=O)N[C@@H](Cc1c[nH]cn1)C(=O)N[C@@H](CC(N)=O)C(=O)N[C@@H](Cc1ccccc1)C(N)=O)C(C)C)C(C)C [SEQ. ID. NO: 39] | *# | – | – | – | – |
| CC[C@H](C)[C@H](NC(=O)[C@H](CCC(=O)O)NC(=O)[C@H](CO)NC(=O)[C@@H](NC(=O)[C@@H](N)CO)C(C)C)C(=O)N[C@@H](CCC(N)=O)C(=O)N[C@@H](CC(C)C)C(=O)N[C@@H](CCSC)CC(=O)N[C@@H](Cc1cnc[nH]1)C(=O)N[C@@H](CC(N)=O)C(=O)N[C@@H](CC(C)C)C(=O)NCC(=O)N[C@@H](CCCCN)C(=O)N[C@@H](Cc1cnc[nH]1)C(=O)N[C@@H](CC(C)C)C(=O)N[C@@H](CC(N)=O)C(=O)N[C@@H](CO)C(=O)N[C@@H](CCSC)C(=O)N[C@@H](CCC(=O)O)C(=O)N[C@@H](CCCNC(=N)N)C(=O)N[C@H](C(=O)N[C@@H](CCC(=O)O)C(=O)N[C@@H](Cc1c[nH]c2ccccc12)C(=O)N[C@@H](CC(C)C)C(=O)N[C@@H](CCCNC(=N)N)C(=O)N[C@@H](CCCCN)C(=O)N[C@@H](CCCCN)C(=O)N[C@@H](CC(C)C)C(=O)N[C@@H](CCC(N)=O)C(=O)N[C@@H](CC(=O)O)C(=O)N[C@H](C(=O)N[C@@H](Cc1cnc[nH]1)C(=O)N[C@@H](CC(N)=O)C(=O)N[C@@H](Cc1ccccc1)C(N)=O)C(C)C)C(C)C [SEQ. ID. NO: 45] | – | 21 ± 2.3 | – | > 100 | – |

From US11780901B2, “Analogues of parathyroid hormone (1-34) that function as agonists of the parathyroid hormone receptor-1 and display modified activity profiles” (Wisconsin Alumni Research Foundation, priority 2013, dated 2023)
